Results published in patent US20110178396A1, “Nicotinamide Derivatives” (CRC FOR BIOMEDICAL IMAGING DEVELOPMENT LTD., priority 2008, published 2011).

What was measured:
[1] = HPLC metabolite analysis in plasma, tumour, eye and urine; assay type: in vivo; details: for Percentage Unchanged Tracer: HPLC
B16F0 melanoma tumour = assay: Biodistribution in B16 melanoma bearing mice; assay type: in vivo, C57BL/6J mice; details: B16 melanoma bearing mice
Procedure, shortened: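 B16F0 tumours in C57BL/6J mice (day 11) and A375 xenografts in BALB/c nude mice (day 25), subcutaneous left flank. Radiotracer given i.v. by tail vein (18F 0.5–1.5 MBq; 123I 0.37–0.74 MBq); n=5 per time point, 15 min–6 h (18F) or 1–72 h (123I). Organs γ-counted as % ID/g.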

CCN(CC)CCNC(=O)c1ccc(F)nc1 [[^18F]MEL2, 6-Fluoro-N-[2-(diethylamino)ethyl]nicotinamide]
Percentage Unchanged Tracer ([1]; Eye, 15 minutes): 100% | Percentage Unchanged Tracer ([1]; Eye, 60 minutes): 96% | Percentage Unchanged Tracer ([1]; Eye, 120 minutes): 99% | form of activity taken up in the tumour and eye ([1]; HPLC analysis at various time points): unchanged [^18F]MEL2 and not metabolites | form excreted in urine ([1]; HPLC analysis, all time points studied): excreted predominately as the unchanged radiotracer | Percentage Unchanged Tracer ([1]; Plasma, 15 minutes): 85% | Percentage Unchanged Tracer ([1]; Plasma, 60 minutes): 79% | Percentage Unchanged Tracer ([1]; Plasma, 120 minutes): 63% | Percentage Unchanged Tracer ([1]; Tumour, 15 minutes): 100% | Percentage Unchanged Tracer ([1]; Tumour, 60 minutes): 100% | Percentage Unchanged Tracer ([1]; Tumour, 120 minutes): 98% | Percentage Unchanged Tracer ([1]; Urine, 60 minutes): 90% | Percentage Unchanged Tracer ([1]; Urine, 120 minutes): 87% | uptake BLOOD (B16F0 melanoma tumour; 15 min): 2.048 % ID/g | uptake BONE (B16F0 melanoma tumour; 15 min): 3.493 % ID/g | uptake BRAIN (B16F0 melanoma tumour; 15 min): 2.471 % ID/g | uptake EYES (B16F0 melanoma tumour; 15 min): 14.678 % ID/g | uptake GIT (B16F0 melanoma tumour; 15 min): 5.421 % ID/g | uptake HEART (B16F0 melanoma tumour; 15 min): 3.153 % ID/g | uptake KIDNEY (B16F0 melanoma tumour; 15 min): 14.117 % ID/g | uptake LIVER (B16F0 melanoma tumour; 15 min): 10.148 % ID/g | uptake LUNGS (B16F0 melanoma tumour; 15 min): 5.616 % ID/g | uptake MUSCLE (B16F0 melanoma tumour; 15 min): 3.796 % ID/g | uptake SKIN (B16F0 melanoma tumour; 15 min): 2.214 % ID/g | uptake SPLEEN (B16F0 melanoma tumour; 15 min): 8.585 % ID/g | uptake STOMACH (B16F0 melanoma tumour; 15 min): 9.344 % ID/g | uptake THYROID (B16F0 melanoma tumour; 15 min): 5.515 % ID/g | uptake TUMOUR (B16F0 melanoma tumour; 15 min): 6.970 % ID/g | uptake BLOOD (B16F0 melanoma tumour; 30 min): 1.218 % ID/g | uptake BONE (B16F0 melanoma tumour; 30 min): 2.078 % ID/g | uptake BRAIN (B16F0 melanoma tumour; 30 min): 1.997 % ID/g | uptake EYES (B16F0 melanoma tumour; 30 min): 15.976 % ID/g | uptake GIT (B16F0 melanoma tumour; 30 min): 3.855 % ID/g | uptake HEART (B16F0 melanoma tumour; 30 min): 1.902 % ID/g | uptake KIDNEY (B16F0 melanoma tumour; 30 min): 9.595 % ID/g | uptake LIVER (B16F0 melanoma tumour; 30 min): 5.825 % ID/g | uptake LUNGS (B16F0 melanoma tumour; 30 min): 2.922 % ID/g | uptake MUSCLE (B16F0 melanoma tumour; 30 min): 2.240 % ID/g | uptake SKIN (B16F0 melanoma tumour; 30 min): 1.473 % ID/g | uptake SPLEEN (B16F0 melanoma tumour; 30 min): 7.225 % ID/g | uptake STOMACH (B16F0 melanoma tumour; 30 min): 6.639 % ID/g | uptake THYROID (B16F0 melanoma tumour; 30 min): 2.537 % ID/g | uptake TUMOUR (B16F0 melanoma tumour; 30 min): 8.582 % ID/g | uptake BLOOD (B16F0 melanoma tumour; 1 h): 0.619 % ID/g | uptake BONE (B16F0 melanoma tumour; 1 h): 1.368 % ID/g | uptake BRAIN (B16F0 melanoma tumour; 1 h): 1.096 % ID/g | uptake EYES (B16F0 melanoma tumour; 1 h): 18.808 % ID/g | uptake GIT (B16F0 melanoma tumour; 1 h): 2.102 % ID/g | uptake HEART (B16F0 melanoma tumour; 1 h): 0.977 % ID/g | uptake KIDNEY (B16F0 melanoma tumour; 1 h): 3.446 % ID/g | uptake LIVER (B16F0 melanoma tumour; 1 h): 2.813 % ID/g | uptake LUNGS (B16F0 melanoma tumour; 1 h): 1.632 % ID/g | uptake MUSCLE (B16F0 melanoma tumour; 1 h): 1.248 % ID/g | uptake SKIN (B16F0 melanoma tumour; 1 h): 0.766 % ID/g | uptake SPLEEN (B16F0 melanoma tumour; 1 h): 2.393 % ID/g | uptake STOMACH (B16F0 melanoma tumour; 1 h): 3.370 % ID/g | uptake THYROID (B16F0 melanoma tumour; 1 h): 3.327 % ID/g | uptake TUMOUR (B16F0 melanoma tumour; 1 h): 8.376 % ID/g | uptake BLOOD (B16F0 melanoma tumour; 2 h): 0.147 % ID/g | uptake BONE (B16F0 melanoma tumour; 2 h): 0.578 % ID/g | uptake BRAIN (B16F0 melanoma tumour; 2 h): 0.270 % ID/g | uptake EYES (B16F0 melanoma tumour; 2 h): 17.281 % ID/g | uptake GIT (B16F0 melanoma tumour; 2 h): 0.708 % ID/g | uptake HEART (B16F0 melanoma tumour; 2 h): 0.246 % ID/g | uptake KIDNEY (B16F0 melanoma tumour; 2 h): 0.676 % ID/g | uptake LIVER (B16F0 melanoma tumour; 2 h): 0.693 % ID/g | uptake LUNGS (B16F0 melanoma tumour; 2 h): 0.386 % ID/g | uptake MUSCLE (B16F0 melanoma tumour; 2 h): 0.276 % ID/g | uptake SKIN (B16F0 melanoma tumour; 2 h): 0.356 % ID/g | uptake SPLEEN (B16F0 melanoma tumour; 2 h): 1.848 % ID/g | uptake STOMACH (B16F0 melanoma tumour; 2 h): 1.472 % ID/g | uptake THYROID (B16F0 melanoma tumour; 2 h): 0.609 % ID/g | uptake TUMOUR (B16F0 melanoma tumour; 2 h): 9.416 % ID/g | uptake BLOOD (B16F0 melanoma tumour; 3 h): 0.111 % ID/g | uptake BONE (B16F0 melanoma tumour; 3 h): 0.624 % ID/g | uptake BRAIN (B16F0 melanoma tumour; 3 h): 0.150 % ID/g | uptake EYES (B16F0 melanoma tumour; 3 h): 17.276 % ID/g | uptake GIT (B16F0 melanoma tumour; 3 h): 0.541 % ID/g | uptake HEART (B16F0 melanoma tumour; 3 h): 0.166 % ID/g | uptake KIDNEY (B16F0 melanoma tumour; 3 h): 0.394 % ID/g | uptake LIVER (B16F0 melanoma tumour; 3 h): 0.491 % ID/g | uptake LUNGS (B16F0 melanoma tumour; 3 h): 0.253 % ID/g | uptake MUSCLE (B16F0 melanoma tumour; 3 h): 0.201 % ID/g | uptake SKIN (B16F0 melanoma tumour; 3 h): 0.172 % ID/g | uptake SPLEEN (B16F0 melanoma tumour; 3 h): 0.890 % ID/g | uptake STOMACH (B16F0 melanoma tumour; 3 h): 0.828 % ID/g | uptake THYROID (B16F0 melanoma tumour; 3 h): 0.488 % ID/g | uptake TUMOUR (B16F0 melanoma tumour; 3 h): 7.753 % ID/g | uptake BLOOD (B16F0 melanoma tumour; 6 h): 0.020 % ID/g | uptake BONE (B16F0 melanoma tumour; 6 h): 0.515 % ID/g | uptake BRAIN (B16F0 melanoma tumour; 6 h): 0.039 % ID/g | uptake EYES (B16F0 melanoma tumour; 6 h): 15.591 % ID/g | uptake GIT (B16F0 melanoma tumour; 6 h): 0.135 % ID/g | uptake HEART (B16F0 melanoma tumour; 6 h): 0.054 % ID/g | uptake KIDNEY (B16F0 melanoma tumour; 6 h): 0.075 % ID/g | uptake LIVER (B16F0 melanoma tumour; 6 h): 0.123 % ID/g | uptake LUNGS (B16F0 melanoma tumour; 6 h): 0.066 % ID/g | uptake MUSCLE (B16F0 melanoma tumour; 6 h): 0.032 % ID/g | uptake SKIN (B16F0 melanoma tumour; 6 h): 0.041 % ID/g | uptake SPLEEN (B16F0 melanoma tumour; 6 h): 0.470 % ID/g | uptake STOMACH (B16F0 melanoma tumour; 6 h): 0.193 % ID/g | uptake THYROID (B16F0 melanoma tumour; 6 h): 0.168 % ID/g | uptake TUMOUR (B16F0 melanoma tumour; 6 h): 7.747 % ID/g | uptake in melanin containing tissue (tumour and eyes) (B16F0 melanoma tumour; six hour period): high uptake | washout in all other tissue (B16F0 melanoma tumour; six hour period): rapid washout
